Earlier results as cited in PMC10299363 (International Journal of Molecular Sciences, 2023).

Columns and labels:
[1] = tested on: chemically induced PDACs; details: subcutaneous injection, rats
Excerpt: The galaninergic system is also involved in tumorigenesis, the invasion/migration of tumor cells and angiogenesis, and has been correlated with the tumor stage, proliferation, metastasis, and recurrence rate. […] The inactivation of GAL2R by promoter hypermethylation decreased disease-free survival. GAL2R strongly exerted anti-tumor activity via two important mechanisms: (1) tumor cell cycle arrest mediated via the extracellular-regulated protein kinase-1/2 (ERK1/2)-dependent effects on the cyc ...

[2] = tested on: insulin secretion
[3] = tested on: head and neck cancer; details: via activation of PBMCs
[4] = tested on: GAL2R
[5] = tested on: GAL3R

Substance	number of chemically induced PDACs [1]	effect on insulin secretion [2]	effect in head and neck cancer [3]	binding to GAL2R [4]	binding to GAL3R [5]	breakdown in vivo
galanin: 30 amino acid peptide that stimulates three subtype receptors (GAL1–3R)	reduced the number of chemically induced PDACs	strong inhibitory effects toward insulin secretion	pro-tumor effects	binds	binds	–
linear angiotensin: linear angiotensin (ref 33: radioiodinated angiotensin II) (DRVYIHPF; Angiotensin-2; UniProt P01019 25-32, looked up)	–	–	–	–	–	broken down within a minute
